The target of this assay is T1, rCsFBPase (Clonorchis sinensis, UniProt G7YVB4).
T1 construct: gene CLF_111764; GenBank id is printed for the qPCR primers and is a genome scaffold
T1 sequence (G7YVB4 1-346): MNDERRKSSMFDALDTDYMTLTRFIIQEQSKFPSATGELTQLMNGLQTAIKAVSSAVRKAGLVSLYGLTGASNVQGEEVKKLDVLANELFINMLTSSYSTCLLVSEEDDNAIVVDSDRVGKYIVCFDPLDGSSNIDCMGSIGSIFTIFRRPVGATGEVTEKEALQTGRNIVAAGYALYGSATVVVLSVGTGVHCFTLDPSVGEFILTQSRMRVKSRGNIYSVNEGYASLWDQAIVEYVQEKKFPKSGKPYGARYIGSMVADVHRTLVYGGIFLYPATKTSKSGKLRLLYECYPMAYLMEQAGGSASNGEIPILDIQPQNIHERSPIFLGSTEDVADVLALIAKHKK
Put plainly: coupled G6PDH / phosphoglucose isomerase assay, NADP+ reduction at […] nm. It counts as biochemical.

Results on 2 molecules are retold here after PMC7217481, “Amino acids serve as an important energy source for adult flukes of Clonorchis sinensis” (PLoS Neglected Tropical Diseases, 2020).

pIC50: −log10 of the molar value.

The term pIC50 denotes −log10 of the IC50, conventionally taken in molar units. Read a low pIC50 as a high IC50.

`Nc1ncnc2c1ncn2[C@@H]1O[C@H](COP(=O)(O)O)[C@@H](O)[C@H]1O` [AMP]: the pIC50 was 3.58.
For `CC(C)Cc1sc(N)nc1-c1ccc(P(=O)(O)O)o1` [MB05032, [5-[2-amino-5-(2-methylpropyl)-4-thiazolyl]-2-furanyl] phosphonic acid] the value was 5.31.
